Consider 15 molecules from patent US9227930B2, “Aminoindane derivatives, pharmaceutical compositions containing them, and their use in therapy” (ABBOTT LABORATORIES, priority 2010, dated 2016).

The target of the test is human GlyT1c transporter (Homo sapiens (Human), UniProt P48067). Kind of test: Radioligand binding assay using recombinant CHO cell membranes expressing human GlyT1. To be noted: read-out: radioligand binding Kiapp. The protocol:
2. Radioligand binding assays using recombinant CHO cell membranes expressing human GlyT1:
Radioligand binding to human GlyT1c transporter-expressing membranes was determined as described in Mezler et al., Molecular Pharmacology 74:1705-1715, 2008.

Structures can show the parent of a compound that is named as a salt.

Chain of human GlyT1c transporter (P48067 whole entry): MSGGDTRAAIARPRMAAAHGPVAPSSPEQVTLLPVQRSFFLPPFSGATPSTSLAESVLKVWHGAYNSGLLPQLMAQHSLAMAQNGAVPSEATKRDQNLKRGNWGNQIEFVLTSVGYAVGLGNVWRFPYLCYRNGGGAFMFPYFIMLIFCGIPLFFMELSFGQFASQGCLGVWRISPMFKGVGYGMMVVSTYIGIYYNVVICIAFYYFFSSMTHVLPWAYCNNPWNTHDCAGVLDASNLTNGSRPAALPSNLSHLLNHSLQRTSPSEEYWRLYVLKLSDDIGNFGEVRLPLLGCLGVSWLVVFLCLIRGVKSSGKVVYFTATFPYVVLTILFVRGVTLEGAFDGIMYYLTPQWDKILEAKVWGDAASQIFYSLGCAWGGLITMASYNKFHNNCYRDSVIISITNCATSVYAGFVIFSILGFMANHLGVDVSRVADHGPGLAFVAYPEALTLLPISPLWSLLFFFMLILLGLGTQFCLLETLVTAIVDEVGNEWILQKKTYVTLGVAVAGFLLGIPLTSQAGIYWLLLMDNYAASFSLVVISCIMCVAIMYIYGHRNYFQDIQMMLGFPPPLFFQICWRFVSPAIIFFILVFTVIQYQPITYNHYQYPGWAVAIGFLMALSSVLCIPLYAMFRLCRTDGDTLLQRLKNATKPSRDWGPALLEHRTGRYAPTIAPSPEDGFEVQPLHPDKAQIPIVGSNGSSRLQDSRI

As for `CN(CCOc1cc2c(cc1F)CC(N1CC(C)(O)C1)C2Cc1ccccc1)S(=O)(=O)c1cn(C)cn1` (stereo not drawn) [Example 207, N-(2-(3-Benzyl-6-fluoro-2-(3-hydroxy-3-methylazetidin-1-yl)-2,3-dihydro-1H-inden-5-yloxy)ethyl)-N,1-dimethyl-1H-imidazole-4-sulfonamide], the Ki was ≤ 1000 nM. The value for `CC1CN(C2Cc3ccc(OCCNS(=O)(=O)c4cn(C)cn4)cc3C2Cc2ccccc2)C1` (stereo not drawn) [Example 204, N-(2-(3-Benzyl-2-(3-methylazetidin-1-yl)-2,3-dihydro-1H-inden-5-yloxy)ethyl)-1-methyl-1H-imidazole-4-sulfonamide] was ≤ 100 nM; that for `CC1CN(C2Cc3cc(F)c(OCCNS(=O)(=O)c4cn(C)cn4)cc3C2Cc2ccccc2)C1` (stereo not drawn) [Example 203, N-(2-(3-Benzyl-6-fluoro-2-(3-methylazetidin-1-yl)-2,3-dihydro-1H-inden-5-yloxy)ethyl)-1-methyl-1H-imidazole-4-sulfonamide] was ≤ 100 nM. In the case of `CN[C@@H]1Cc2cc(F)c(OCCNS(=O)(=O)c3cn(C)cn3)cc2[C@@H]1Cc1ccccc1` (relative stereo) [Example 200, cis-N-(2-(3-Benzyl-6-fluoro-2-(methylamino)-2,3-dihydro-1H-inden-5-yloxy)ethyl)-1-methyl-1H-imidazole-4-sulfonamide], the Ki is ≤ 100 nM. With `CN[C@@H]1Cc2cc(F)c(CNS(=O)(=O)c3cn(C)cn3)cc2[C@@H]1Cc1ccccc1` (relative stereo) [Example 209a, cis-N-{[3-Benzyl-6-fluoro-2-(methylamino)-2,3-dihydro-1H-inden-5-yl]methyl}-1-methyl-1H-imidazole-4-sulfonamide], the Ki is ≤ 10 nM. For `Cn1cnc(S(=O)(=O)NCCOc2ccc3c(c2)C(Cc2ccccc2)C(N2CCC2)C3)c1` (stereo not drawn) [Example 202, N-(2-(2-(Azetidin-1-yl)-3-benzyl-2,3-dihydro-1H-inden-5-yloxy)ethyl)-1-methyl-1H-imidazole-4-sulfonamide], the Ki is ≤ 10 nM. For `CNC1Cc2ccc(OCCNS(=O)(=O)c3cn(C)cn3)cc2C1Cc1ccccc1` (stereo not drawn) [Example 199, N-(2-(3-Benzyl-2-(methylamino)-2,3-dihydro-1H-inden-5-yloxy)ethyl)-1-methyl-1H-imidazole-4-sulfonamide], the Ki was ≤ 10 nM. As to `Cn1cnc(S(=O)(=O)NCCOc2cc3c(cc2F)C[C@@H](N2CC(C)(O)C2)[C@H]3Cc2ccccc2)c1` (relative stereo) [Example 206, cis-N-(2-{[3-Benzyl-6-fluoro-2-(3-hydroxy-3-methylazetidin-1-yl)-2,3-dihydro-1H-inden-5-yl]oxy}ethyl)-1-methyl-1H-imidazole-4-sulfonamide], the Ki is ≤ 100 nM.

Take `Cn1ccnc1S(=O)(=O)NCCOc1ccc2c(c1)C(Cc1ccccc1)C(N)C2` (stereo not drawn) [Example 198, N-(2-(2-Amino-3-benzyl-2,3-dihydro-1H-inden-5-yloxy)ethyl)-1-methyl-1H-imidazole-2-sulfonamide hydrochloride]: the Ki is ≤ 10000 nM.

Turning to `CCOC(=O)NC1Cc2ccc(OCCNS(=O)(=O)c3nccn3C)cc2C1Cc1ccccc1` (stereo not drawn) [Example 196, Ethyl 1-benzyl-6-(2-(1-methyl-1H-imidazole-2-sulfonamido)ethoxy)-2,3-dihydro-1H-inden-2-ylcarbamate], the Ki was ≤ 10000 nM. `Cn1cnc(S(=O)(=O)NCCOc2ccc3c(c2)C(Cc2ccccc2)C(N)C3)c1` (stereo not drawn) [Example 197, N-{2-[(2-Amino-3-benzyl-2,3-dihydro-1H-inden-5-yl)oxy]ethyl}-1-methyl-1H-imidazole-4-sulfonamide hydrochloride]: the Ki was ≤ 100 nM. The value for `CN[C@@H]1Cc2cc(F)c(CNS(=O)(=O)c3cn(C)cn3)cc2[C@H]1Cc1ccccc1` (relative stereo) [Example 209b, trans-N-{[3-benzyl-6-fluoro-2-(methylamino)-2,3-dihydro-1H-inden-5-yl]methyl}-1-methyl-1H-imidazole-4-sulfonamide] was ≤ 10 nM; that for `Cn1cnc(S(=O)(=O)NCCOc2ccc3c(c2)C(Cc2ccccc2)C(N2CC(C)(C)C2)C3)c1` (stereo not drawn) [Example 205, N-(2-{[3-Benzyl-2-(3,3-dimethylazetidin-1-yl)-2,3-dihydro-1H-inden-5-yl]oxy}ethyl)-1-methyl-1H-imidazole-4-sulfonamide] was ≤ 100 nM. As to `CCOC(=O)NC1Cc2ccc(OCCNS(=O)(=O)c3cn(C)cn3)cc2C1Cc1ccccc1` (stereo not drawn) [Example 195, Ethyl 1-benzyl-6-(2-(1-methyl-1H-imidazole-4-sulfonamido)ethoxy)-2,3-dihydro-1H-inden-2-ylcarbamate], the Ki was ≤ 1000 nM. Take `Cn1cnc(S(=O)(=O)NCCOc2cc3c(cc2F)C[C@@H](N2CCC2)[C@H]3Cc2ccccc2)c1` (relative stereo) [Example 201, cis-N-(2-{[2-(Azetidin-1-yl)-3-benzyl-6-fluoro-2,3-dihydro-1H-inden-5-yl]oxy}ethyl)-1-methyl-1H-imidazole-4-sulfonamide]: the Ki is ≤ 100 nM.
